Measured values: EPA's ToxValDB 9.5 (doi:10.2903/j.efsa.2006.82r)
≈ marks a conversion by molar mass, not a printed value.

Legend:
Anas platyrhynchos = details: for LD50: oral, mortality
Apis mellifera = details: acute; duration: 48 hours; oral; unspecified; mortality
Bird = details: acute; oral; unspecified; mortality
Canidae = details: oral, Dog Other, organ weight
Colinus virginianus = details: for LD50: acute, oral, mortality
Trichogramma cacoeciae = details: not reported; mortality

For `COc1ccc(C(=CC(=O)N2CCOCC2)c2ccc(Cl)cc2)cc1OC` [Dimethomorph], the LD50 (Anas platyrhynchos; acute, unspecified) was greater than 2000 mg/kg, the NOEL (Anas platyrhynchos; reproductive) was 78.4 mg/kg-day and the LD50 (Anas platyrhynchos; short-term, feed) was greater than 938 mg/kg-day. It also gave an LD50 (Apis mellifera) greater than 32.4 µg/piece, an LD50 (Bird) of 3900 mg/kg and an NOAEL (Canidae; chronic, duration: 1 years, M/F) of 4.9 mg/kg-day. For the same molecule, the NOAEL (Canidae; subchronic, duration: 90 days) was 15 mg/kg-day, the LD50 (Colinus virginianus; diet) was greater than 728 mg/kg-day and the LD50 (Colinus virginianus) was greater than 2000 mg/kg. The NOEL (Colinus virginianus; reproduction developmental) was 58.4 mg/kg-day, the LC50 (Oncorhynchus mykiss; acute, duration: 96 hours, mortality) was 3.4 µg/mL (≈ 8.77 µM) and the NOEC (Oncorhynchus mykiss; chronic/long-term, duration: 96 days, development) was 0.056 mg/L. For the same molecule, the NOAEL (Rattus norvegicus; developmental, development) was 60 mg/kg-day, the NOAEL (Rattus norvegicus; subchronic, duration: 90 days, oral) was 16 mg/kg-day and the LC50 (Tagia sp.; acute, duration: 14 days, mortality) was greater than 1000 mg/kg. It also gave an NOEC (Tagia sp.; chronic/long-term, duration: 8 weeks, reproduction) of no less than 120 mg/kg and an LEL (Trichogramma cacoeciae) of 115 g/ha.
